Assay results: ChEMBL document CHEMBL3259738, “Discovery of substituted benzamides as follicle stimulating hormone receptor allosteric modulators” (Bioorg Med Chem Lett, 2014)
pEC50: −log10 of the molar value. Converted amounts (≈) assume the structure as drawn.

Legend:
[1] = biological target: T1, Follicle-stimulating hormone receptor (Homo sapiens) (UniProt P23945); experiment: Positive allosteric modulation of human FSH receptor expressed in CHO cells assessed as effect on FSH-induced cAMP accumulation at 50 uM after 1 hr by HTRF assay relative to FSH; format: functional, cell-based
T1 sequence (whole entry): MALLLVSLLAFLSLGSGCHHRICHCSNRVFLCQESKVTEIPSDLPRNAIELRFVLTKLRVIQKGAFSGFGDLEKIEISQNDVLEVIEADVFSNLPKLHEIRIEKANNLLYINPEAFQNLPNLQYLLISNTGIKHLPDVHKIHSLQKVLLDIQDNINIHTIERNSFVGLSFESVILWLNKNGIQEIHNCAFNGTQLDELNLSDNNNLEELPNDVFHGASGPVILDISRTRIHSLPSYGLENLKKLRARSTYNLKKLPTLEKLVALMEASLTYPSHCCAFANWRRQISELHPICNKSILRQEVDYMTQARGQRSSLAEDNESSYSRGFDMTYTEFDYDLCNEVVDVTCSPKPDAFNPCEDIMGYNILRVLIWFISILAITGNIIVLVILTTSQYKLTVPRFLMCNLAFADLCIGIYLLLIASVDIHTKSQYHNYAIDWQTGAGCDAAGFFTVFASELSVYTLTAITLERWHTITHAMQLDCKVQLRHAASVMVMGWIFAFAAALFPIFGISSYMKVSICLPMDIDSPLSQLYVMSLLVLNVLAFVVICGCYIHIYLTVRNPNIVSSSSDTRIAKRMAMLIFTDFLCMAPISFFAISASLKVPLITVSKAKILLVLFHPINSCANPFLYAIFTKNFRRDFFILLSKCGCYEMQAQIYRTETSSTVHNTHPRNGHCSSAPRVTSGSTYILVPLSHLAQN

[2] = Clearance in human microsomes; format: ADME
[3] = Clearance in rat microsomes; format: ADME
[4] = biological target: T2, Follicle-stimulating hormone receptor (Homo sapiens, UniProt P23945); experiment: Positive allosteric modulation of human FSH receptor expressed in CHO cells assessed as effect on FSH-induced cAMP accumulation after 1 hr by HTRF assay; format: functional, cell-based
T2 sequence (P23945 whole entry): T1 sequence (whole entry)

[5] = Volume of distribution at steady state in immature Sprague-Dawley rat at 0.2 mg/kg, iv; format: ADME, organism-based; parameters: dose 0.2 mg/kg, route intravenous; details: in vivo, read-out: Vdss
[6] = Oral bioavailability in immature Sprague-Dawley rat at 0.5 mg/kg; format: ADME, organism-based; details: in vivo
[7] = Clearance in immature Sprague-Dawley rat at 0.2 mg/kg, iv; format: ADME, organism-based; parameters: dose 0.2 mg/kg, route intravenous; details: in vivo
[8] = Aqueous solubility of the compound at pH 7.4; format: physicochemical
[9] = Induction of estradiol production in rat primary granulosa cells after 24 hrs by ELISA; format: functional
[10] = Induction of estradiol production in rat primary granulosa cells after 24 hrs by ELISA relative to FSH; format: functional
[11] = biological target: T1, Follicle-stimulating hormone receptor (Homo sapiens); experiment: Positive allosteric modulation of human FSH receptor expressed in CHO cells assessed as effect on FSH-induced cAMP accumulation at 12 uM after 1 hr by HTRF assay relative to FSH; format: functional, cell-based

| Compound | Activity [1] | microsomal CLint [2] | microsomal CLint [3] | pEC50 [4] | further results |
| --- | --- | --- | --- | --- | --- |
| Cc1ccccc1C1CCN(c2ccc(C(=O)NCCCN3CCCC3=O)cc2NC(=O)c2ccco2)CC1 | 1% | – | – | – | – |
| Cc1ccccc1N1CCN(c2ccc(C(=O)NCCCN3CCOC3=O)cc2NC(=O)c2ccco2)CC1 | – | 59 µL/min/mg | 25 µL/min/mg | 7.55 | – |
| Cc1ccc(N2CCN(c3ccc(C(=O)NCCCN4CCCC4=O)cc3NC(=O)c3coc(C4CC4)n3)CC2)cc1 | 13% | – | – | – | – |
| Cc1ccccc1N1CCN(c2ccc(C(=O)NCCCN3CCCC3=O)cc2NC(=O)c2ccco2)CC1 | – | 312 µL/min/mg | 233 µL/min/mg | – | – |
| Cc1ccccc1N1CCN(c2ccc(C(=O)NCCCN3CCCC3=O)cc2NC(=O)c2coc(C3CC3)n2)CC1C (configuration not stated) | 36% | – | – | – | – |
| Cc1ccccc1N1CCN(c2ccc(C(=O)NCCCN3CCCC3=O)cc2NC(=O)c2coc(C3CC3)n2)CC1 | – | 260 µL/min/mg | 225 µL/min/mg | 7.00 | – |
| O=C(NCCCN1CCCC1=O)c1ccc(N2CCNCC2)c(NC(=O)c2ccco2)c1 | 1% | – | – | – | – |
| Cc1ccccc1N1CCN(c2ccc(C(=O)NCCCc3nn[nH]n3)cc2NC(=O)c2coc(C3CC3)n2)CC1 | – | 20 µL/min/mg | 18 µL/min/mg | 7.05 | Vd [5]: 5.46 L/kg; bioavailability [6]: 21%; clearance [7]: 13.2 mL/min/kg; solubility [8]: 160 µM (≈ 88.9 µg/mL); pEC50 [9]: 6.77; Efficacy [10]: 78% |
| Cc1ccccc1N1CCN(c2ccc(C(=O)NCCCN3CCCC3=O)cc2NS(=O)(=O)c2ccco2)CC1 | – | – | – | – | Activity [11]: 10% |
| Cc1ccccc1N1CCN(c2ccc(C(=O)NCCCN3CCCC3=O)cc2NC(=O)c2ccncc2)CC1 | – | – | – | – | Activity [11]: 34% |
| Cc1ccccc1N1CCN(c2ccc(C(=O)N[C@@H]3CCC[C@@H](O)[C@H]3O)cc2NC(=O)c2coc(C3CC3)n2)CC1 | – | 72 µL/min/mg | 13 µL/min/mg | 7.28 | Vd [5]: 1.65 L/kg; bioavailability [6]: 23%; clearance [7]: 3.41 mL/min/kg; pEC50 [9]: 8.30; Efficacy [10]: 81% |
| Cc1ccccc1N1CCN(c2ccc(CNCCCN3CCCC3=O)cc2NC(=O)c2coc(C3CC3)n2)CC1 | – | – | – | – | Activity [11]: 4.5% |
| Cc1ccccc1N1CCN(c2ccc(C(=O)NCCCN3CCCC3=O)cc2NC(=O)c2cccnc2)CC1 | – | – | – | – | Activity [11]: 37% |
| Cc1ccccc1N1CCN(c2ccc(C(=O)NCc3cccc(C(N)=O)c3)cc2NC(=O)c2ccco2)CC1 | – | 54 µL/min/mg | 31 µL/min/mg | 7.34 | – |
| O=C(NCCCN1CCCC1=O)c1ccc(N2CCN(c3ccccn3)CC2)c(NC(=O)c2ccco2)c1 | 20% | – | – | – | – |
| Cc1ccccc1N1CCN(c2ccc(C(=O)NCCCN3C(=O)CCC3=O)cc2NC(=O)c2ccco2)CC1 | – | 33 µL/min/mg | 38 µL/min/mg | 6.74 | – |
| COc1ccccc1N1CCN(c2ccc(C(=O)NCCCN3CCCC3=O)cc2NC(=O)c2ccco2)CC1 | 20% | – | – | – | – |
| Cc1ccccc1N1CCN(c2ccc(C(=O)N3CCC(N4CCCC4=O)CC3)cc2NC(=O)c2ccco2)CC1 | – | – | – | – | Activity [11]: 40% |
